In patent US10391095B2, “DNA-PK inhibitors” (Vertex Pharmaceuticals Incorporated, priority 2012, dated 2019) one finds Ki data, which are given here for 65 compounds.

Where only a bound is given, the exact number is not on record here.

For orientation: Ki means the equilibrium dissociation constant of an inhibitor or competing ligand from its target. Higher therefore signals weaker binding.

The assay concerns the target DNA-PK (Homo sapiens, UniProt P78527). In words: DNA-PK inhibition assay (radiometric, 33P-ATP). The following applies: 100 μM ATP, competitive tight-binding fit. Type of assay: biochemical. The gist of the method: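 Approx. 6 nM DNA-PK with 10 µg/mL sheared dsDNA, 0.8 mg/mL peptide substrate and 100 µM 33P-ATP in HEPES pH 7.5, 10 mM MgCl2; 45 min, phosphoric acid quench. Phosphopeptide captured on filter plates and counted by scintillation; Ki from a competitive tight-binding model fit.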

Consider `CNC(=O)c1ccnc2c([C@H](C)CNc3cc(-c4cnc(SC)nc4)ncn3)cccc12` [Compound 800], for which the Ki was less than 30 nM. `CNC(=O)c1ccnc2c([C@H](C)CNc3cc(-c4ccc5c(c4)CNCC5)ncn3)cccc12` [Compound 801]: the Ki was less than 30 nM.

As for `CNC(=O)c1ccnc2c([C@H](C)CNc3cc(-c4ccc5c(c4)CCNC5)ncn3)cccc12` [Compound 802], the Ki is less than 30 nM. In the case of `CNC(=O)c1ccnc2c([C@H](C)CNc3cc(-c4ccc5c(c4)CCN(C(C)=O)C5)ncn3)cccc12` [Compound 803] it was less than 30 nM. In the case of `CNC(=O)c1ccnc2c([C@H](C)CNc3cc(-c4ccc5c(c4)CN(C(C)=O)CC5)ncn3)cccc12` [Compound 804] it was less than 30 nM; in that of `CNC(=O)c1ccnc2c([C@H](C)CNc3cc(-c4ccc(C)cc4F)ncn3)cccc12` [Compound 805], less than 30 nM. The value for `CNC(=O)c1ccc(-c2cc(NC[C@@H](C)c3cccc4c(C(=O)NC)ccnc34)ncn2)cc1F` [Compound 807] was less than 30 nM. `CNC(=O)c1ccnc2c([C@H](C)CNc3cc(-c4ccc(C5(O)COC5)cc4)ncn3)cccc12` [Compound 809]: the Ki is less than 30 nM. For the compound `CNC(=O)c1ccnc2c([C@H](C)CNc3cc(-c4cnc(N(C)C)nc4)ncn3)cccc12` [Compound 810], the Ki was less than 30 nM. Consider `CNC(=O)c1ccnc2c([C@H](C)CNc3cc(-c4ccc(C(C)OC)cc4)ncn3)cccc12` (some centres unmarked) [Compound 811], for which the Ki is less than 30 nM. In the case of `CNC(=O)c1ccnc2c([C@H](C)CNc3cc(-c4ccnc(C(F)(F)F)c4)ncn3)cccc12` [Compound 812] it was less than 30 nM; in that of `Cc1ncc(-c2cc(NC[C@@H](C)c3cccc4c(C(F)F)c(F)cnc34)ncn2)cn1` [Compound 813], less than 30 nM; in that of `C[C@H](CNc1cc(-c2cnc3c(cnn3CCO)c2)ncn1)c1cccc2c(C(F)F)c(F)cnc12` [Compound 814], less than 30 nM. In the case of `CNC(=O)c1ccnc2c([C@H](C)CNc3cc(-c4cnc5c(c4)CN(C(C)=O)CC5)ncn3)cccc12` [Compound 815] it was less than 30 nM; in that of `CNC(=O)c1ccnc2c([C@H](C)CNc3cc(-c4ccc(CC(C)C)nc4)ncn3)cccc12` [Compound 816], less than 30 nM; in that of `CNC(=O)c1ccnc2c([C@H](C)CNc3cc(-c4cnc5c(c4)OCCN5)ncn3)cccc12` [Compound 817], less than 30 nM. As to `CNC(=O)c1ccnc2c([C@H](C)CNc3cc(-c4ccnc(N5CCOCC5)c4)ncn3)cccc12` [Compound 818], the inhibition constant (Ki) is less than 30 nM. In the case of `CNC(=O)c1ccnc2c([C@H](C)CNc3cc(-c4ccnc(N5CCC(O)CC5)c4)ncn3)cccc12` [Compound 819] it was less than 30 nM; in that of `CNC(=O)c1ccnc2c([C@H](C)CNc3cc(-c4cnc(CO)c(OC)c4)ncn3)cccc12` [Compound 821], less than 30 nM. The value for `CNC(=O)c1ccnc2c([C@H](C)CNc3cc(-c4cnc(C(C)(C)O)c(F)c4)ncn3)cccc12` [Compound 822] was less than 30 nM; that for `CNC(=O)c1ccnc2c([C@H](C)CNc3cc(-c4ccc(OC)c(F)c4)ncn3)cccc12` [Compound 823] was less than 30 nM; that for `CNC(=O)c1ccnc2c([C@H](C)CNc3cc(-c4cc(F)c(OC)c(F)c4)ncn3)cccc12` [Compound 824] was less than 30 nM. Compound `CNC(=O)c1ccnc2c([C@H](C)CNc3cc(-c4ccc5c(c4)CC(=O)N5C)ncn3)cccc12` [Compound 825] returned a Ki of less than 30 nM. `CNC(=O)c1ccnc2c([C@H](C)CNc3cc(N4CCn5c(C6CCN(C)CC6)cnc5C4)ncn3)cccc12` [Compound 826]: the Ki was less than 30 nM. In the case of `CNC(=O)c1ccnc2c([C@H](C)CNc3cc(-c4cnc(C)s4)ncn3)ccc(F)c12` [Compound 827] it was less than 30 nM; in that of `CNC(=O)c1c(F)cnc2c([C@H](C)CNc3cc(-c4cnc(C)s4)ncn3)cccc12` [Compound 828], less than 30 nM; in that of `CCc1ncc(-c2cc(NC[C@@H](C)c3cccc4c(C(=O)NC)ccnc34)ncn2)cn1` [Compound 829], less than 30 nM. In the case of `CCc1ncc(-c2cc(NC[C@@H](C)c3ccc(F)c4c(C(=O)NC)ccnc34)ncn2)cn1` [Compound 830] it was less than 30 nM; in that of `CNC(=O)c1ccnc2c([C@H](C)CNc3cc(-c4cnc(C5CCOCC5)nc4)ncn3)cccc12` [Compound 831], less than 30 nM. `CNC(=O)c1ccnc2c([C@H](C)CNc3cc(-c4cnc(C5CCOCC5)nc4)ncn3)ccc(F)c12` [Compound 832]: the Ki is less than 30 nM. The value for `CNC(=O)c1c(F)cnc2c([C@H](C)CNc3cc(-c4cnc(C5CCOCC5)nc4)ncn3)cccc12` [Compound 833] was less than 30 nM; that for `CNC(=O)c1ccnc2c([C@H](C)CNc3cc(-c4ccc5c(c4)CN(C(=O)COC)CC5)ncn3)cccc12` [Compound 834] was less than 30 nM; that for `CNC(=O)c1ccnc2c([C@H](C)CNc3cc(-c4ccc5c(c4)CCN(C(=O)COC)C5)ncn3)cccc12` [Compound 835] was less than 30 nM.

In the case of `Cc1ccc(-c2cc(NC[C@@H](C)c3cncc4c3OCCN4)ncn2)cn1` [Compound 837], the Ki was less than 30 nM. In the case of `Cc1ccc(-c2cc(NCC(C)c3cccc4c(C)ncnc34)ncn2)cn1` (centres unmarked) [Compound 838] it was less than 30 nM.

As for `CNC(=O)c1ccnc2c([C@H](C)CNc3cc(-c4ccc(C)s4)ncn3)cccc12` [Compound 839], the Ki is less than 30 nM. The value for `CNC(=O)c1ccnc2c([C@H](C)CNc3cc(-c4cncc(COC)c4)ncn3)cccc12` [Compound 840] was less than 30 nM; that for `CNC(=O)c1ccnc2c([C@H](C)CNc3cc(-c4cnnc(C)c4)ncn3)cccc12` [Compound 841] was less than 30 nM; that for `CNC(=O)c1ccnc2c([C@H](C)CNc3cc(-c4ccc5c(c4)CCO5)ncn3)cccc12` [Compound 842] was less than 30 nM. Regarding `CNC(=O)c1ccnc2c([C@H](C)CNc3cc(-c4ccc5c(c4)OCCN5C)ncn3)cccc12` [Compound 843], the Ki is less than 30 nM.

Consider `[2H]c1nc(C)nc([2H])c1-c1cc(NC[C@@H](C)c2cccc3c(C(=O)NC)ccnc23)ncn1` [Compound 844, (S)—N-methyl-8-(1-((2′-methyl-4′,6′-dideutero-[4,5′-bipyrimidin]-6-yl)amino)propan-2-yl)quinoline-4-carboxamide], for which the Ki was less than 30 nM. Regarding `CNC(=O)c1ccnc2c([C@H](C)CNc3cc(-c4ccc(C5CCC5)nc4)ncn3)cccc12` [Compound 845], the Ki is less than 30 nM. Take `CNC(=O)c1ccnc2c([C@H](C)CNc3cc(-c4cnc(C5CCC5)nc4)ncn3)cccc12` [Compound 846]: the Ki was less than 30 nM.

`CNC(=O)c1ccnc2c([C@H](C)CNc3cc(-c4ccc(C5CC5)nc4)ncn3)cccc12` [Compound 847] yielded an inhibitory constant (Ki) of less than 30 nM. The value for `CNC(=O)c1ccnc2c([C@H](C)CNc3cc(-c4ccc(C(C)C)nc4)ncn3)cccc12` [Compound 848] was less than 30 nM.

On to `CNC(=O)c1ccnc2c([C@H](C)CNc3cc(-c4cnc(C(C)C)nc4)ncn3)cccc12` [Compound 849], for which the Ki is less than 30 nM.

Take `CNC(=O)c1ccnc2c([C@H](C)CNc3cc(-c4ccc(C5CCC5)nc4)ncn3)ccc(F)c12` [Compound 850]: the Ki is less than 30 nM. Compound `CNC(=O)c1ccnc2c([C@H](C)CNc3cc(-c4cnc(C5CCC5)nc4)ncn3)ccc(F)c12` [Compound 851] gave a Ki of less than 30 nM. `CNC(=O)c1ccnc2c([C@H](C)CNc3cc(-c4ccc(C5CC5)nc4)ncn3)ccc(F)c12` [Compound 852] registered a Ki of less than 30 nM. In turn, `CNC(=O)c1ccnc2c([C@H](C)CNc3cc(-c4ccc(C(C)C)nc4)ncn3)ccc(F)c12` [Compound 853] had a Ki of less than 30 nM. In the case of `CNC(=O)c1ccnc2c([C@H](C)CNc3cc(-c4cnc(C(C)C)nc4)ncn3)ccc(F)c12` [Compound 854] it was less than 30 nM. The compound `CNC(=O)c1c(F)cnc2c([C@H](C)CNc3cc(-c4ccc(C5CCC5)nc4)ncn3)cccc12` [Compound 855] showed a Ki of less than 30 nM. Compound `CNC(=O)c1c(F)cnc2c([C@H](C)CNc3cc(-c4cnc(C5CCC5)nc4)ncn3)cccc12` [Compound 856] displayed a Ki of less than 30 nM. The value for `CNC(=O)c1c(F)cnc2c([C@H](C)CNc3cc(-c4ccc(C5CC5)nc4)ncn3)cccc12` [Compound 857] was less than 30 nM; that for `CNC(=O)c1c(F)cnc2c([C@H](C)CNc3cc(-c4ccc(C(C)C)nc4)ncn3)cccc12` [Compound 858] was less than 30 nM. `CNC(=O)c1ccnc2c([C@H](C)CNc3cc(-c4ccc(CO)s4)ncn3)cccc12` [Compound 860] gave a Ki of less than 30 nM. As to `[2H]c1nc(C)nc([2H])c1-c1cc(NC[C@@H](C)c2ccc(F)c3c(C(=O)NC)ccnc23)ncn1` [Compound 861], the Ki was less than 30 nM. In the case of `[2H]c1nc(C)nc([2H])c1-c1cc(NC[C@@H](C)c2cccc3c(C(=O)NC)c(F)cnc23)ncn1` [Compound 862], the Ki was less than 30 nM. In turn, `CNC(=O)c1ccnc2c([C@H](C)CNc3cc(-c4cc(C)nc(OC)c4)ncn3)cccc12` [Compound 863] displayed a Ki of less than 30 nM. `CNC(=O)c1ccnc2c([C@H](C)CNc3cc(-c4ccc5c(c4)N(C)CCO5)ncn3)cccc12` [Compound 864]: the Ki is less than 30 nM. The value for `CNC(=O)c1ccnc2c([C@H](C)CNc3cc(-c4ccc(C(C)(C)O)nc4)ncn3)ccc(F)c12` [Compound 865] was less than 30 nM. For the compound `CNC(=O)c1c(F)cnc2c([C@H](C)CNc3cc(-c4ccc(C(C)(C)O)nc4)ncn3)cccc12` [Compound 866], the Ki was less than 30 nM.

For the compound `CNC(=O)c1ccnc2c([C@H](C)CNc3cc(-c4cnc(N)c(F)c4)ncn3)cccc12` [Compound 867], the Ki was less than 30 nM. In the case of `CNC(=O)c1ccnc2c([C@H](C)CNc3cc(-c4cncc(C#N)c4)ncn3)cccc12` [Compound 868] it was less than 30 nM; in that of `CNC(=O)c1ccnc2c([C@H](C)CNc3cc(-c4ccnc(OC)c4)ncn3)cccc12` [Compound 869], less than 30 nM.
